According to patent EP0728738A1, “Tetralinyl- and indanyl-ethylamides having melatonergic activity” (BRISTOL-MYERS SQUIBB COMPANY, priority 1995, dated 1996):

target: ML1 Receptor; assay: Melatonergic binding at the ML1 receptor in rabbit tissue (2-[125I]-iodomelatonin displacement, parietal cortex homogenate); conditions: 2-[125I]-iodomelatonin 44pM, 37°C for 1 hour, read-out: Binding Affinity IC50
Description: Example 46: Measurement of Melatonergic Binding at the ML1 Receptor in Rabbit Tissue
• 1. Reagents • (a) 50mM Tris buffer containing 12.5 mM MgCl2, and 2mM EDTA (pH 7.4 at 37 °C). • (b) Wash buffer: 20mM Tris base containing 2mM MgCl2 (pH 7.4 at room temperature). • (c) 6-Chloromelatonin (10-^5M final concentration). • (d) 2-[^125I]-iodomelatoin, 44pM final concentration Source: NEN • 2. Tissue preparation. Male New Zealand white rabbits (Hazelton Research) are decapitated, the brains are rapidly removed and chilled. The parietal cortex is crudely dissected and frozen on dry ice with tissue stored at - 80 °C until assayed. Tissue is weighed and thawed in 20 mls ice cold Tris buffer (a) and homogenized by treatment with a polytron for 10 seconds at setting 17. Ice cold Tris (a) is added to a volume of 40 mls. The homogenate is centrifuged. The resulting supernatant is decanted and discarded. The pellet is rehomogenized in an additional 20 mls of Tris, diluted and centrifuged. The supernatant is decanted and discarded. The resulting pellet is homogenized in 20 volumes of Tris per gram of original tissue (a 1:20 homogenate), chilled, and held on ice until assayed. • 3. Incubation: 37 °C for 1 hour. Reaction is terminated by filtration. • 4. […] References: Stankov, B., Cozzi, B., Lucini, V., Fumagalli, P., Scaglione, F. and F. Fraschini. Characterization and mapping of melatonin receptors in the brain of three mammalian species: Rabbit, horse, and sheep. Neuroendocrinology 53: 214-221, 1991.

| Compound | IC50 [nM] |
| --- | --- |
| CCCC(=O)NCCC1CCc2ccc(F)cc21 (centres unmarked) [Example 31, N-[2-(6-Fluoro-2,3-dihydro-1H-inden-1-yl)ethyl]butanamide] | < 100 |
| COc1ccc2c(c1)C(CCNC(C)=O)CC2(C)C (centres unmarked) [Example 32, N-[2-(2,3-Dihydro-6-methoxy-3,3-dimethyl-1H-inden-1-yl)ethyl]acetamide] | 100 to 500 |
| CCCC(=O)NCCC1CC(C)(C)c2ccc(OC)cc21 (centres unmarked) [Example 33, N-[2-(2,3-Dihydro-6-methoxy-3,3-dimethyl-1H-inden-1-yl)ethyl]butanamide] | 100 to 500 |
| CCCC(=O)NCCC1CCc2ccc(C(=O)OC)cc21 (centres unmarked) [Example 42, N-[2-(2,3-Dihydro-6-methoxycarbonyl-1H-inden-1-yl)ethyl]butanamide] | < 100 |

The next lines start with the values.

| IC50 [nM] | Compound |
| --- | --- |
| < 100 | COCC(=O)NCCC1CCCc2ccc(OC)cc21 (single isomer, unassigned; (+)) [Example 39, (+)-N-[2-(1,2,3,4-tetrahydro-7-methoxynaphthalen-1-yl)ethyl] methoxyacetamide] |
| < 100 | CCCC(=O)NCCC1CCc2ccc(OC)cc21 (single isomer, unassigned; (-)) [Example 36] |
| < 100 | COCC(=O)NCCC1CCCc2ccc(OC)cc21 (single isomer, unassigned; (-)) [Example 38, (-)-N-[2-(1,2,3,4-tetrahydro-7-methoxynaphthalen-1-yl)ethyl] methoxyacetamide] |
| < 100 | CCCC(=O)NCCC1CCCc2ccc(OC)cc21 (centres unmarked) [Example 1, N-[2-(7-Methoxy-1,2,3,4-tetrahydro-1-naphthalenyl)ethyl]butanamide] |
| < 100 | COc1ccc2c(c1)C(CCNC(=O)C1CC1)CCC2 (centres unmarked) [Example 3, N-[2-(7-Methoxy-1,2,3,4-tetrahydro-1-naphthalenyl)ethyl]cyclopropane carboxamide] |
| < 100 | COc1ccc2c(c1)C(CCNC(C)=O)CCC2 (centres unmarked) [Example 4, N-[2-(7-Methoxy-1,2,3,4-tetrahydro-1-naphthalenyl)ethyl]acetamide] |
| < 100 | COCC(=O)NCCC1CCCc2ccc(OC)cc21 (centres unmarked) [Example 16, N-[2-(7-Methoxy-1,2,3,4-tetrahydro-1-naphthalenyl)ethyl]-2-methoxyacetamide] |
| < 100 | CCCC(=O)NCCC1CCc2ccc(OC)cc21 (centres unmarked) [Example 22, N-[2-(2,3-Dihydro-6-methoxy-1H-inden-1-yl)-ethyl]butanamide] |
| < 100 | COc1ccc2c(c1)C(CCNC(=O)C1CC1)CC2 (centres unmarked) [Example 24, N-[2-(2,3-Dihydro-6-methoxy-1H-inden-1-yl)-ethyl]cyclopropane carboxamide] |
| < 100 | COc1ccc2c(c1)C(CCNC(C)=O)CC2 (centres unmarked) [Example 25, N-[2-(2,3-Dihydro-6-methoxy-1H-inden-1-yl)-ethyl]acetamide] |

target: T1, Human Melatonin Receptor ML1A (Homo sapiens, UniProt P48039); assay: Melatonergic binding at the human melatonin receptor ML1A (2-[125I]-iodomelatonin displacement, membranes of transfected COS-1 cells); conditions: human ML1A in COS-1 cell membranes, 2-[125I]-iodomelatonin 100 pM, 37°C for 1 hour; read-out: Binding Affinity IC50
T1 construct: expressed in transfected cells; host or cells: COS-1 cells, pcDNAI vector, DEAE-dextran transfection
T1 sequence (P48039 whole entry): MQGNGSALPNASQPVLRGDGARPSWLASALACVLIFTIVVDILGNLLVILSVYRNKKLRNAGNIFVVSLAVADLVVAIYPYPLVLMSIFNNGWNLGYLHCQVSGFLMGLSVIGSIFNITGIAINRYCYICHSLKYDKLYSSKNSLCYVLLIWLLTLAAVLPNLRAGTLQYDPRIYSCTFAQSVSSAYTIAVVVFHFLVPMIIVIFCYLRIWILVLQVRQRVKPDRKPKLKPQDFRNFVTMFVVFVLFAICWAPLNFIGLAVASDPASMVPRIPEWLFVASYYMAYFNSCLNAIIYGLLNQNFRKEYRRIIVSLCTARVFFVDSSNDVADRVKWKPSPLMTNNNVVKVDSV
Description: Example 47: Measurement of Melatonergic Binding at the Human Melatonin Receptor ML1A
• 1. Reagents: • (a) 50mM Tris buffer containing 12.5 mM MgCl2, and 2mM EDTA, pH 7.4 at 37 °C with concentrated HCl. • (b) Wash buffer: 20mM Tris base containing 2mM MgCl2. pH 7.4 at room temperature. • (c) 10^-4M 6-Chloromelatonin (10-^5M final concentration). • (d) 2-[^125I]-iodomelatonin, 100 pM final concentration Source: NEN • 2. Membrane preparation: The cDNA (human ML1A) in pcDNAI was introduced into COS-1 cells by the DEAE-dextran method. Three days after transfection, the media was removed, the plates washed with phosphate buffered saline, the cells removed using Hank's balanced salt solution and pelleted. For preparing membrane homogenates, pellets are thawed on ice, and resuspended in TME buffer, 50 mM Tris base, 12.5 mM MgCl2, 1 mM EDTA (pH7.4 at 37°C with concentrated HCL), supplemented with 10 µg/ml aprotinin and leupeptin, and 100 µM phenylmethlysulfonylfluoride. The cells were then homogenized using a dounce homogenizer, and centrifuged. The resulting pellet was resuspended with a dounce homogenizer in TME and frozen. On the day of assay, the small aliquot was thawed on ice and resuspended in TME buffer. • 3. Incubation: 37 °C for 1 hour. Reaction is terminated by filtration. • 4. […] Reference: Reppert, S. M., Weaver, D. R., and Ebisawa, R. (1994), Neuron, 13, 1177-1185.

| Compound | IC50 [nM] |
| --- | --- |
| CCCC(=O)NCCC1CCc2ccc(OC)cc21 (single isomer, unassigned; (+)) [Example 37] | 100 to 500 |
| CCCCCCCCCCCCOc1ccc2c(c1)C(CCNC(=O)CCC)CC2 (centres unmarked) [Example 43, N-[2-(2,3-Dihydro-6-dodecyloxy-1H-inden-1-yl)ethyl]butanamide] | < 100 |
| CCCC(=O)NCCC1CCc2ccc(OC(F)F)cc21 (centres unmarked) [Example 45, N-[2-(6-Difluoromethoxy-2,3-dihydro-1H-inden-1-yl)ethyl]butanamide] | < 100 |

Next, values leading:

| IC50 [nM] | Compound |
| --- | --- |
| ≥ 500 | COCC(=O)NCCC1CCCc2ccc(OC)cc21 (single isomer, unassigned; (+)) [Example 39, (+)-N-[2-(1,2,3,4-tetrahydro-7-methoxynaphthalen-1-yl)ethyl] methoxyacetamide] |
| < 100 | CCCC(=O)NCCC1CCc2ccc(OC)cc21 (single isomer, unassigned; (-)) [Example 36] |
| < 100 | COCC(=O)NCCC1CCCc2ccc(OC)cc21 (single isomer, unassigned; (-)) [Example 38, (-)-N-[2-(1,2,3,4-tetrahydro-7-methoxynaphthalen-1-yl)ethyl] methoxyacetamide] |
